This assay deals with CEM cells HIV-1 protection, formazan growth assay. The assay can be described thus: NCI AIDS Antiviral Assay. The settings on record: for IC50: measured here: growth of uninfected CEM cells. In a few lines: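 Steps: treat uninfected and HIV-1-infected human CEM cells at five drug levels; quantify growth by soluble formazan; retest any compound reaching 50% protection; classify actives from the retest.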

The source made the active and inactive calls.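 The calls were made as follows: active = compounds giving half or more protection of infected cells from virus-caused growth loss, again on retest; inactive = the rest.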 Bounds are passed on as bounds.

On to `COc1ccc(C2Nc3ccccc3NC3CC(C)(C)CC(=O)C32)cc1` (stereo not given), for which the EC50 is greater than 257 µM and the IC50 was 178 µM.
As for `c1ccc2c(-c3cccc4ccccc34)cccc2c1`, the EC50 was greater than 200 µM and the half-inhibitory concentration (IC50) is greater than 200 µM.
With `Cn1c(=O)c2c(c3cc(O)ccc31)OC(C(C)(C)O)C2` (stereo not given), the EC50 is greater than 617 µM and the IC50 is 112 µM.
Consider `O=C(/C=C/c1ccccc1)CSc1ncn[nH]1`, for which the EC50 was greater than 200 µM and the concentration for half-maximal inhibition (IC50) amounted to 12 µM.
Regarding `COC(=O)c1ccc(N=NN(C)COc2ccc(C#N)cc2)cc1`, the EC50 was greater than 200 µM and the 50% inhibitory concentration (IC50) came to 81.3 µM.
For the molecule `Clc1ccc(-c2cn3c(nc4ccccc43)c(-c3ccccc3)n2)cc1`, the EC50 is greater than 200 µM and the IC50 amounted to 72.4 µM.
Consider `CN1C(=O)C(O)(c2c3c(c(C4(O)C(=O)N(C)c5ccccc54)c4c2OCO4)OCO3)c2ccccc21` (stereo not given), for which the EC50 is greater than 200 µM and the concentration for half-maximal inhibition (IC50) was greater than 200 µM.
Regarding `O=C(c1ccccc1)c1cc(Cl)ccc1NCn1nnc2ccccc21`, the EC50 is greater than 200 µM and the IC50 turned out to be 35.5 µM.
Turning to `CC1=C[C@H]2O[C@H]3C[C@H]4OC(=O)/C=C\C=C\C(=O)OCC[C@@H](C)C(O)C(=O)OC[C@@]2(CC1)[C@@]4(C)[C@]31CO1` (stereo not given in full), the EC50 is greater than 0.363 µM and the IC50 came to 0.0112 µM.
Take `N#CC1C(=O)C(=O)N(c2ccccc2)C1=O` (stereo not given): the EC50 was greater than 33.9 µM and the IC50 is greater than 33.9 µM.
`CCOC(=O)C(NC(=O)c1cccc(Cl)c1)(Nc1ccc(S(=O)(=O)Nc2cc(C)nc(C)n2)cc1)C(F)(F)F` (stereo not given): the EC50 was greater than 200 µM and the concentration for half-maximal inhibition (IC50) was greater than 200 µM.
As for `COC(=O)CSSCc1ccccc1`, the EC50 was greater than 200 µM and the IC50 was found to be 5.25 µM.
With `Cc1c(C)c2c(c(N)c1C#N)C(=O)N(O)C2=O`, the EC50 is greater than 200 µM and the IC50 is greater than 200 µM.
On to `O=C1OC(Cl)(C(Cl)(Cl)Cl)C(=O)OC1(Cl)C(Cl)(Cl)Cl` (stereo not given), for which the EC50 is greater than 200 µM and the IC50 was greater than 200 µM.
Turning to `OC1Cn2cc(Br)c[n+]2C1` (stereo not given), the EC50 was greater than 200 µM and the IC50 is greater than 200 µM.
For the molecule `Cc1ccc(S(=O)(=O)OC2C3CC4C(=O)OC2C4C3)cc1` (stereo not given), the concentration for a half-maximal effect (EC50) stood at 126 µM and the 50% inhibitory concentration (IC50) is greater than 200 µM.
On to `O=C(O)/C(=C\c1ccc(F)cc1)c1ccccc1`, for which the EC50 was greater than 537 µM and the IC50 is 309 µM.
In the case of `NC1(C(=O)O)CCCCC1c1ccccc1` (stereo not given), the EC50 is greater than 42.7 µM and the IC50 was greater than 42.7 µM.
Take `Cc1ccc(C2=NO[C@@H]3C(=O)N(c4ccc(Cc5ccc(N6C(=O)[C@H]7C(c8ccc(C)cc8)=NO[C@H]7C6=O)cc5)cc4)C(=O)[C@H]23)cc1`: the EC50 was greater than 11.5 µM and the IC50 was greater than 11.5 µM.
As to `O=c1[nH]c(=O)n(C2CC(O)C(COP(=O)(On3nnc4ccccc43)N3CCCCC3)O2)cc1F` (stereo not given), the EC50 was greater than 200 µM and the 50% inhibitory concentration (IC50) worked out at 0.0631 µM.
For the molecule `O=C(O)CN(c1ccc(F)cc1)S(=O)(=O)c1ccccc1`, the outcome was inactive.
Regarding `COc1ccccc1/C=C1\SC(=S)N(/C=C2\C(=O)Oc3ccccc3C2=O)C1=O`, the EC50 was greater than 200 µM and the 50% inhibitory concentration (IC50) turned out to be 27.5 µM.
For the molecule `COc1cc2ccc(/C(C)=N/OC(C)=O)cc2cc1OC`, the result was inactive.
Take `O=C(O)CC(NC(=O)Nc1ccc([N+](=O)[O-])cc1)C(=O)Nc1ccc([N+](=O)[O-])cc1` (stereo not given): the EC50 was greater than 200 µM and the IC50 is greater than 200 µM.
Regarding `CCN(CC)C(=O)COc1cc2c(O)c3c(O)c(C)c4c(c13)C(=O)C(C)(OC=CC(OC)C(C)C(OC(C)=O)C(C)C(O)C(C)C(O)C(C)C=CC=C(C)C(=O)N2)O4` (stereo not given), the EC50 was greater than 155 µM and the half-inhibitory concentration (IC50) was greater than 100 µM.
With `Clc1ccc(Nc2ncco2)cc1Cl`, the EC50 was greater than 200 µM and the half-maximal inhibitory concentration (IC50) is 107 µM.
The matching figures for `O=C1C=CC(=O)c2c1ccc1c3ccccc3n(Cc3ccccc3)c21`: greater than 200 µM and 3.24 µM.
Consider `O=c1[nH]c2ccccc2c(=O)n1/N=C/c1ccc(O)cc1`, for which the EC50 was greater than 200 µM and the IC50 was greater than 200 µM.
Consider `O=C1C=CC(=O)c2nc3c(cc21)CCC3`, for which the EC50 was greater than 91.2 µM and the IC50 was 10.5 µM.
For `O=C(C1CC2CCN1CC2)N1CCN(C(=O)C2CC3CCN2CC3)CC1` (stereo not given), in that order: greater than 200 µM and greater than 200 µM.
Consider `COc1cc2c(cc1OC)C13CC(=O)N(C(C)=O)N1CCCN3C2=O` (stereo not given), for which the EC50 was greater than 145 µM and the IC50 is greater than 145 µM.
In the case of `COc1ccc(C(=O)/C=C/c2ccc(OCC(=N)N)cc2)cc1OC`, the result was inactive.
On to `Clc1ccc2c(SCC3CO3)c3ccccc3nc2c1` (stereo not given), for which the EC50 is greater than 200 µM and the IC50 turned out to be 2.57 µM.
As to `CC[C@@]1(O)C(=O)OCc2c1cc1n(c2=O)Cc2cc3cc4c(cc3nc2-1)OCO4`, the EC50 is greater than 0.002 µM and the half-inhibitory concentration (IC50) was 0.000331 µM.
For the molecule `CCCC(=O)OC1C(C2COC(C)(C)O2)OC2OC(C)(C)OC21` (stereo not given), the outcome was inactive.
Same read-out and setting: the entry for `CC12CC(=O)NN=C1c1ccccc1C2` (stereo not given) is “inactive”.
As to `COc1ccc(/C=C2\CN(C)CC3C2=NN(c2ccccc2)C3c2ccc(OC)cc2)cc1` (stereo not given), the EC50 was greater than 200 µM and the IC50 was greater than 200 µM.
With `O=C(O)CCNc1ccc2c(c1)B(O)OC2`, the EC50 is greater than 692 µM and the IC50 was greater than 692 µM.
`COc1cc2c(c(OC)c1OC)[C@@H]1CCCCC[C@@H]1CCC2=O`: the EC50 is greater than 251 µM and the IC50 stood at 112 µM.
For `CC(=O)C1C(=O)C(=O)N(c2ccccc2)C1=O` (stereo not given), in that order: greater than 200 µM and greater than 200 µM.
The matching figures for `O=C(O)CSCCOCCSCC(=O)O`: greater than 708 µM and greater than 708 µM.
Consider `O=P1(O)C=CC2(CCCC2)O1`, for which the EC50 is greater than 200 µM and the half-inhibitory concentration (IC50) was greater than 200 µM.
For the molecule `N#C/C(=C\c1cc(O)c(O)c(O)c1)C(N)=O`, the EC50 is greater than 200 µM and the IC50 was determined as 91.2 µM.
Turning to `Cn1c(=O)c2c(nc(C[N+]3([O-])CCOCC3)n2C)n(C)c1=O`, the EC50 was greater than 83.2 µM and the 50% inhibitory concentration (IC50) is greater than 83.2 µM.
Consider `CC(=O)c1c(O)c2ccc(Cl)cc2[nH]c1=O`, for which the EC50 is greater than 200 µM and the concentration for half-maximal inhibition (IC50) turned out to be 33.9 µM.
As for `O=c1cc(CO)oc2c3c(cc(O)c12)OCC(COC1OC(CO)C(O)C(O)C1O)=CC3` (stereo not given), the EC50 was greater than 550 µM and the IC50 is 288 µM.
Take `COC(=O)C(CCCCNC(=O)CNC(=O)OCc1ccccc1)NC(=O)C(CCCCNC(=O)CNC(=O)OCc1ccccc1)NC(=O)OCc1ccccc1` (stereo not given): the EC50 is greater than 100 µM and the IC50 is 66.1 µM.
On to `Cc1cn(CCOCCOC(=O)NC(CCCNC(N)=O)C(=O)O)c(=O)[nH]c1=O` (stereo not given), for which the EC50 was greater than 200 µM and the half-maximal inhibitory concentration (IC50) is greater than 200 µM.
In the case of `O=C1OC(c2ccc(Cl)c3ccccc23)c2ccccc21` (stereo not given), the EC50 is greater than 17.8 µM and the IC50 was greater than 17.8 µM.
On to `CC#CCC1CCC(OCC)=CC1=O` (stereo not given), for which the outcome was inactive.
In the case of `COCC1OC2(CCC[C@H]2O)O[C@H]1COC` (stereo not given in full), the result was inactive.
The same measure, in the same setting: then `c1ccc(-c2cc(=[N+]3CCOCC3)c3ccccc3o2)cc1`, with “inactive”.
With `N[C@H]1c2c(Br)sc(Br)c2C(=O)[C@H]1O`, the EC50 is greater than 200 µM and the IC50 is 7.59 µM.
For `O=C1NC(=O)C(C(=O)Nc2ccc(Cl)cc2)c2ccccc21` (stereo not given), in that order: greater than 200 µM and 129 µM.

(Values after PubChem BioAssay AID179 (DTP/NCI, 2004).)
